Where two headings read alike, the source gives them in different places.
Experiments:
[1] = design: method as in PMID 29949102; conditions: cited from earlier work
[2] = Study 2 plasma pharmacokinetics of verinurad; format: in vivo, human; conditions: healthy non-Asian participants; for Tmax: median (range); for half-life: read-out: t½λz (converted)
Description: (§1) Study 2 was a Phase 1, randomized, open‐label study comprising of three parts. Parts 1 and 2 assessed the pharmacokinetics and pharmacodynamics of single and multiple doses of verinurad, respectively (Figure 1). Part 3 assessed the effect of food on the pharmacokinetics and pharmacodynamics of verinurad and is not reported further herein. In the single‐dose assessment, […] were randomized 1:1:1:1:1:1 into 1 of 6 treatment sequences with a single dose of 4.5, 6, or 12 mg verinurad, administered on days 1, 5, and 9 (Figure 1). In the multiple‐dose assessment, 8 participants received 12 mg verinurad QD on days 1 to 7.
(§2) In both studies, participants received verinurad capsules with an extended‐release profile. On the days of pharmacokinetic sampling, treatment was given in fasting state.
Verinurad plasma samples were analyzed using similar methodologies as described by Shen et al.[13] with lower and upper limits of quantification of 0.100 ng/mL and 40.0 ng/mL, respectively. The ability to dilute overrange samples was also confirmed. […].
(§3) Pharmacokinetics and pharmacodynamics were assessed in all participants who received ≥1 dose of study drug and had ≥1 corresponding assessment.

[3] = Study 2 (NCT02608710) safety: adverse events, laboratory, vital signs, ECG; format: in vivo, human
Description: as §1
(§4) Analysis of safety was based on adverse events (AEs), laboratory assessments (including hematology, clinical chemistry, urinalysis, and coagulation), vital signs (systolic and diastolic blood pressure, and pulse rate), electrocardiogram (ECG), and physical examination. AEs were coded using the Medical Dictionary for Regulatory Activities. In Study 1, a treatment‐emergent AE was defined as an AE with onset (start date/time) after the first dose of study drug in the run‐in period (day –7). In Study 2, AEs were recorded from the time the participant signed the informed consent through to the follow‐up visit. ECGs were obtained after the participant rested in the supine position. Digital ECG analysis in Study 1 was performed at the AstraZeneca ECG Center.
(§5) Safety was assessed in the safety analysis set of each study, comprising all participants who received ≥1 dose of study drug. Continuous variables are summarized using descriptive statistics, and categorical variables are summarized as frequency and proportion.

[4] = Study 1 (NCT03836599) safety: adverse events, laboratory, vital signs, ECG; format: in vivo, human; conditions: Study 1, up to 24 mg verinurad + 300 mg allopurinol
Excerpt: (§6) Cohort 1 was randomized, double‐blind, and placebo‐controlled and consisted of 12 healthy Asian participants, of whom <50% were Chinese. Cohort 2 was open‐label, consisting of 9 healthy Chinese participants.
as §4, §5

[5] = design: method as in PMID 30334639; conditions: patients with gout, 1 Japanese study and 1 Western study; cited from earlier work
[6] = tested on: serum uric acid (sUA) and urinary uric acid (uUA); experiment: Study 2 pharmacodynamics: serum and urinary uric acid; format: in vivo, human; conditions: healthy non-Asian participants
Description: as §1
Key pharmacodynamic parameters included time‐matched percentage change from baseline (day –1) at each timepoint in sUA concentration, maximum observed percentage change from baseline (time‐matched, day –1) in sUA concentration (Emax,CB) and time to Emax,CB, amount of UA recovered in urine (Aeur), and fractional excretion of UA (FEUA).
as §3

[7] = design: method as in PMID 29950814; conditions: cited from earlier work
[8] = Study 1 plasma pharmacokinetics of verinurad, allopurinol and oxypurinol; format: in vivo, human; conditions: for Tmax: median (range); for Cmax / AUC: geometric mean (gCV%)
Description: as §6, §2
Verinurad plasma samples were analyzed using similar methodologies as described by Shen et al.[13] with lower and upper limits of quantification of 0.100 ng/mL and 40.0 ng/mL, respectively.

[9] = single dose 15 mg verinurad, moderate renal impairment
[10] = single dose 15 mg verinurad, severe renal impairment
[11] = single dose, mild renal impairment
[12] = multiple-dose assessment 12 mg verinurad QD, Day 7, geometric mean (gCV%)
[13] = single dose 6 mg verinurad, geometric mean (gCV%)
[14] = single dose 12 mg verinurad, geometric mean (gCV%)
[15] = multiple-dose assessment, 12 mg verinurad QD (n = 8)
[16] = single-dose assessment, 4.5 mg verinurad (n = 16)
[17] = single-dose assessment, 6 mg verinurad (n = 16)
[18] = single-dose assessment, 12 mg verinurad (n = 16)
[19] = 12 mg verinurad QD, day 1, 3 to 6 h post-dose
[20] = 12 mg verinurad QD, day 7, 3 to 6 h post-dose
[21] = single dose 4.5 mg verinurad, 3 to 6 h post-dose
[22] = single dose 6 mg verinurad, 3 to 6 h post-dose
[23] = single dose 12 mg verinurad, 3 to 6 h post-dose
[24] = healthy Japanese male participants, day 6 after QD dosing with 15 mg verinurad modified-release formulation
[25] = healthy Asian participants, 24 mg verinurad + 300 mg allopurinol QD, Day 7
[26] = healthy Chinese participants, 12 mg verinurad + 300 mg allopurinol day 1 and QD days 3-9, Day 9, arithmetic mean (SD)
[27] = healthy Chinese participants, 12 mg verinurad + 300 mg allopurinol, Day 1, arithmetic mean (SD)

Which results are given for `CC(C)(Sc1ccncc1-c1ccc(C#N)c2ccccc12)C(=O)O` [verinurad]?
AUC increase compared with normal renal function [1, 9]: 148%; Cmax increase compared with normal renal function [1, 9]: 73%; AUC increase compared with normal renal function [1, 10]: 130%; Cmax increase compared with normal renal function [1, 10]: 128%; AUC increase compared with normal renal function [1, 11]: 24%; Cmax increase compared with normal renal function [1, 11]: 53%; CL/F ([2]; multiple-dose assessment 12 mg verinurad QD, Day 1, geometric mean (gCV%)): 52.2 (20.2) L/h; Tmax ([2]; multiple-dose assessment 12 mg verinurad QD, Day 1): 5.00 (2.00–6.00) h; CL/F [2, 12]: 44.2 (27.3) L/h; t½λz [2, 12]: 10.9 (19.1) h; CL/F ([2]; single dose 4.5 mg verinurad, geometric mean (gCV%)): 51.8 (27.9) L/h; Tmax ([2]; single dose 4.5 mg verinurad): 4.00 (2.00–6.00) h; CL/F [2, 13]: 58.8 (40.5) L/h; Cmax [2, 13]: 13.4 (67.6) ng/mL; Tmax ([2]; single dose 6 mg verinurad): 4.00 (2.00–6.05) h; CL/F [2, 14]: 58.3 (44.4) L/h; t½λz [2, 14]: 12.2 (67.7) h; Tmax ([2]; single dose 12 mg verinurad): 4.00 (2.00–6.00) h; AUC ([2]; human, plasma, oral, 4.5 mg, single dose 4.5 mg verinurad, geometric mean (gCV%), read-out: AUC): 86.8 ng·h/mL; AUC ([2]; human, plasma, oral, 4.5 mg, single dose 4.5 mg verinurad, geometric mean (gCV%), read-out: AUCτ): 68.1 ng·h/mL; Cmax ([2]; human, plasma, oral, 4.5 mg, single dose 4.5 mg verinurad, geometric mean (gCV%), read-out: Cmax): 11.8 ng/mL; AUC ([2]; human, plasma, oral, 6 mg, single dose 6 mg verinurad, geometric mean (gCV%), read-out: AUC): 102 ng·h/mL; AUC ([2]; human, plasma, oral, 6 mg, single dose 6 mg verinurad, geometric mean (gCV%), read-out: AUCτ): 80.8 ng·h/mL; AUC ([2]; human, plasma, oral, 12 mg, multiple-dose assessment 12 mg verinurad QD, Day 1, geometric mean (gCV%), read-out: AUC): 230 ng·h/mL; AUC ([2]; human, plasma, oral, 12 mg, multiple-dose assessment 12 mg verinurad QD, Day 1, geometric mean (gCV%), read-out: AUCτ): 209 ng·h/mL; Cmax ([2]; human, plasma, oral, 12 mg, multiple-dose assessment 12 mg verinurad QD, Day 1, geometric mean (gCV%), read-out: Cmax): 29.9 ng/mL; AUC ([2]; human, plasma, oral, 12 mg, multiple-dose assessment 12 mg verinurad QD, Day 7, geometric mean (gCV%), read-out: AUCτ): 271 ng·h/mL; Cmax ([2]; human, plasma, oral, 12 mg, multiple-dose assessment 12 mg verinurad QD, Day 7, geometric mean (gCV%), read-out: Cmax): 36.3 ng/mL; AUC ([2]; human, plasma, oral, 12 mg, single dose 12 mg verinurad, geometric mean (gCV%), read-out: AUC): 206 ng·h/mL; AUC ([2]; human, plasma, oral, 12 mg, single dose 12 mg verinurad, geometric mean (gCV%), read-out: AUCτ): 168 ng·h/mL; Cmax ([2]; human, plasma, oral, 12 mg, single dose 12 mg verinurad, geometric mean (gCV%), read-out: Cmax): 28.6 ng/mL; AUC ([2]; human, plasma, oral, 12 mg, single dose of verinurad 4.5, 6, or 12 mg, read-out: geometric mean AUCτ, range over doses): 68.1 to 168 ng·h/mL; Cmax ([2]; human, plasma, oral, 12 mg, single dose of verinurad 4.5, 6, or 12 mg, read-out: geometric mean Cmax, range over doses): 11.8 to 28.6 ng/mL; half-life ([2]; human, plasma, oral, multiple-dose assessment 12 mg verinurad QD, Day 1, geometric mean (gCV%)): 7.15 h; Tmax ([2]; human, plasma, oral, multiple-dose assessment 12 mg verinurad QD, Day 7, read-out: tmax): 6 h; half-life ([2]; human, plasma, oral, single dose 4.5 mg verinurad, geometric mean (gCV%)): 12.7 h; half-life ([2]; human, plasma, oral, single dose 6 mg verinurad, geometric mean (gCV%)): 13.6 h; diarrhea, participants ([3]; human, in vivo): 2; findings in laboratory parameters, vital signs, 12-lead ECG variables ([3]; in vivo): No clinically significant findings; Death, Events [3, 15]: 0 Events; Death, n (%) [3, 15]: 0 n (%); Death, Events [3, 16]: 0 Events; Death, n (%) [3, 16]: 0 n (%); Death, Events [3, 17]: 0 Events; Death, n (%) [3, 17]: 0 n (%); Death, Events [3, 18]: 0 Events; Death, n (%) [3, 18]: 0 n (%); tolerability [4]: well tolerated; verinurad exposure, higher than in Western patients [5]: > 2 fold; tEmax,CB, mean (SD) ([6]; 12 mg verinurad QD, Day 1): 9.0 (1.0) hour; tEmax,CB, mean (SD) ([6]; 12 mg verinurad QD, Day 7): 7.0 (3.0) hour; mean Aeur at peak, higher compared with day –1 [6, 19]: 353%; mean FEUA at peak [6, 19]: 33.3%; mean Aeur at peak, higher compared with day –1 [6, 20]: 81.3%; mean FEUA at peak [6, 20]: 31.2%; tEmax,CB, mean (SD) ([6]; single dose 4.5 mg verinurad): 8.0 (2.1) hour; mean Aeur at peak, higher compared with day –1 [6, 21]: 219%; mean FEUA at peak [6, 21]: 21.5%; tEmax,CB, mean (SD) ([6]; single dose 6 mg verinurad): 8.0 (2.0) hour; mean Aeur at peak, higher compared with day –1 [6, 22]: 267%; mean FEUA at peak [6, 22]: 24.8%; tEmax,CB, mean (SD) ([6]; single dose 12 mg verinurad): 9.0 (1.5) hour; mean Aeur at peak, higher compared with day –1 [6, 23]: 338%; mean FEUA at peak [6, 23]: 33.3%; accumulation for AUC ([7]; after QD doses): 1.3 fold; accumulation for Cmax ([7]; after QD doses): ~ 1.2 fold; AUCτ [7, 24]: 239 ng·h/mL; Cmax [7, 24]: 38.2 ng/mL; CL/F ([8]; healthy Asian participants, 24 mg verinurad + 300 mg allopurinol QD, Day 1, arithmetic mean (SD)): 48.6 (11.3) L/h; Tmax ([8]; healthy Asian participants, 24 mg verinurad + 300 mg allopurinol QD, Day 1): 5.00 (4.98–6.02) h; CL/F ([8]; healthy Asian participants, 24 mg verinurad + 300 mg allopurinol QD, Day 7, arithmetic mean (SD)): 50.9 (9.01) L/h; Cmax [8, 25]: 73.6 (29.0) ng/mL; Tmax [8, 25]: 5.00 (4.00–6.00) h; CL/F [8, 26]: 47.9 (17.2) L/h; t½λz [8, 26]: 6.27 (0.647) h; CL/F [8, 27]: 43.4 (16.2) L/h; t½λz [8, 27]: 12.9 (3.08) h; Tmax ([8]; healthy Chinese participants, 12 mg verinurad + 300 mg allopurinol, Day 1): 5.00 (4.00–6.00) h; half-life ([8]; human, plasma, oral, healthy Asian participants, 24 mg verinurad + 300 mg allopurinol QD, Day 1, arithmetic mean (SD), read-out: t½λz (converted)): 5.98 h; AUC ([8]; human, plasma, oral, healthy Asian participants, 24 mg verinurad + 300 mg allopurinol QD, Day 1, read-out: AUC): 506 ng·h/mL; AUC ([8]; human, plasma, oral, healthy Asian participants, 24 mg verinurad + 300 mg allopurinol QD, Day 1, read-out: AUCτ): 415 ng·h/mL; Cmax ([8]; human, plasma, oral, healthy Asian participants, 24 mg verinurad + 300 mg allopurinol QD, Day 1, read-out: Cmax): 71.2 ng/mL; AUC ([8]; human, plasma, oral, healthy Asian participants, 24 mg verinurad + 300 mg allopurinol QD, Day 7, read-out: AUCτ): 478 ng·h/mL; AUC ([8]; human, plasma, oral, healthy Chinese participants, 12 mg verinurad + 300 mg allopurinol day 1 and QD days 3-9, Day 9, read-out: AUCτ): 264 ng·h/mL; Cmax ([8]; human, plasma, oral, healthy Chinese participants, 12 mg verinurad + 300 mg allopurinol day 1 and QD days 3-9, Day 9, read-out: Cmax): 42 ng/mL; Tmax ([8]; human, plasma, oral, healthy Chinese participants, 12 mg verinurad + 300 mg allopurinol day 1 and QD days 3-9, Day 9, read-out: tmax): 5.5 h; AUC ([8]; human, plasma, oral, healthy Chinese participants, 12 mg verinurad + 300 mg allopurinol, Day 1, read-out: AUC): 295 ng·h/mL; AUC ([8]; human, plasma, oral, healthy Chinese participants, 12 mg verinurad + 300 mg allopurinol, Day 1, read-out: AUCτ): 226 ng·h/mL; Cmax ([8]; human, plasma, oral, healthy Chinese participants, 12 mg verinurad + 300 mg allopurinol, Day 1, read-out: Cmax): 47.6 ng/mL

Source: PMC9121888 (Pharmacology Research & Perspectives, 2022)
